# Measurements from patent US8048455B2, “Treatment of cancer and inflammatory disorder” (Academia Sinica, priority 2006, dated 2011).
# Legend:
# NO = test: Plasma nitrite concentration in SNP-treated mice; type: in vivo, Female ICR mice; details: topical pretreatment 30 min before SNP; dLGG 10 mg/site, PTIO 3.5 mg/site
# Description: Female ICR mice were topically treated on their shaven back area of a 2-cm diameter (3.14 cm^2/site/mouse) with vehicle control (acetone), SNP (positive control), or with dLGG or PTIO for 30 minutes before SNP application. Mouse plasma samples were subjected to determine the nitrite content followed a published method (Moshage et al. Clin Chem 1995; 41:892-6).
# To examine the capability of dLGG to scavenge NO in vivo, the plasma NO concentration in SNP-insulted mice was determined with or without pretreatment with dLGG. Female ICR mice were transdermally treated with 200 μL acetone (vehicle control) or SNP (5.96 mg/site) only for 15 minutes, or pre-treated with dLGG (10 mg/site) or PTIO (3.5 mg/site) for 30 minutes before SNP treatment.
# human COX-2 promoter = test: COX-2 promoter-driven luciferase reporter assay in TPA-treated B16 melanoma cells; type: cell-based, murine; details: for Suppression of full-length COX-2 promoter activity vs TPA only: TPA 50 ng/mL 6 h
# Text: A double-mutated COX-2 promoter containing mutations on both NF-κB sites was also constructed (FIG. 2). PPGL-3-Basic vector was used as a negative control in luciferase assays. COX-2 reporter activity in arbitrary units (AU) was normalized to that for the Renilla luciferase reporter.
# Murine melanoma B-16 cells co-transfected with the full-length pCOX-2-Luc and internal control plasmid pRL-TK-Luc plasmid constructs were stimulated without (control) or with TPA, in the absence or presence of the indicated concentrations of CREa8. An amount of 10 μg of total protein lysate was subjected to dual luciferase reporter assay. The induction fold of COX promoter activity by TPA treatment only is presented as 100%. The statistical analyses between […] and CREa8, aspirin, or indomethacin (Indo.) treatment were performed using Student's t-test.
# B-16 cells were co-transfected with the full-length pCOX-2-Luc and internal control Renilla pRL-TK-Luc plasmid constructs with the LIPOFECTAMINE reagent (Invitrogen). The cells were then stimulated with vehicle (0.001% DMSO) or with 50 ng/mL TPA, in the absence or presence of dLGG for 6 hours. Ten μg of total protein lysate prepared with Passive Lysis Buffer (Promega) was subjected to dual luciferase reporter assay. The induction fold of COX-2 promoter activity by TPA treatment only is presented as 100%.
# The contribution of specific cis-acting element binding sites on the transcription of COX-2 was examined. Data were obtained from 2 to 3 experiments with 3 to 6 replicates and expressed as mean±SD. Two-way ANOVA was used to analyze significance of differences.
# [1] = test system: COX-2 and nitrotyrosine-containing proteins; test: Immunohistochemical study of COX-2 and nitrotyrosine protein expression in mouse skin; type: in vivo, Female ICR mice
# Description: Female ICR mice were topically treated on their shaven backs with vehicle (acetone), TPA, or SNP for 4 hours, or were treated with compound (dLGG, celecoxib, or PTIO) topically for 30 minutes before treating with TPA or SNP for 4 hours and finally killed by cervical dislocation. The formalin-fixed, paraffin-embedded skin tissues were stained according to Chiang et al. Br J Pharmacol 2005; 146:352-63.
# Immunohistochemical study was carried out to examine the ability of dLGG to inhibit TPA induction of COX-2 and nitration of proteins in vivo using immunohistochemical analysis in a mouse skin system. Dorsal skin of female ICR mice was treated topically with acetone (vehicle control) or TPA (10 nmol) for 4 hours or with various concentrations of dLGG or celecoxib for 30 minutes before TPA treatment for 4 hours. Immunohistograms were taken with an Olympus DP-70 camera on a Nikon ECLIPSE E800 microscope.
# PGE2 production = test: LPS-induced PGE2 production in RAW 264.7 macrophages; type: cell-based, murine; details: doses between 25 and 75 μg/mL
# Description: PGE2 production was determined according to the procedure described in Chiang et al. Br J Pharmacol 2005; 146:352-63. Macrophages were pretreated with aspirin (500 μM, 3 h) to inactivate endogenous cyclooxygenase-1, washed, and incubated with test compounds for 1 hour before further incubation for 16 hours with or without LPS. PGE2 in the culture media was determined with ACE™ Competitive Enzyme Immunoassay (Cayman Chemical).
# The above-mentioned test compounds were incubated with COX-2 enzyme and substrates before measuring the COX-2 activity. Celecoxib, a potent nonsteroidal anti-inflammatory drug (NSAID), was used as a positive control. […] The IC50 of the nonsteroidal anti-inflammatory drug celecoxib, used as a positive control, was 0.47 μg/mL. RAW 264.7 cells (1×10^4 cells/well) were treated with dLGG and then stimulated with LPS, and PGE2 in the culture medium was then measured.
# iNOS protein = iNOS protein expression (immunoblotting) in LPS-stimulated RAW264.7 cells; type: cell-based, murine; details: LPS 1 μg/mL 18 h
# Description: Total cellular proteins and the specific cytosolic and nuclear proteins were prepared using methods described in Chiang et al. Protein content was measured by the Bradford method (Bio-Rad). Protein was resolved by 5-20% gradient SDS-PAGE and subjected to immunoblotting using enhanced chemiluminescence reagents (ECL, Amersham). Monoclonal antibodies against PARP (Transduction Laboratories, Lexington, Ky.), GA3PDH (Biogenesis, Poole, UK), α-tubulin (Oncogene Science, Cambridge, UK), COX-2 (Cayman Chemical), phospho-(Ser32)-IκBα, phospho-IKKα(Ser180)/IKKβ(Ser181) (New England Biolabs, Beverly, Mass.), iNOS, IκBα, IKKα/β or NF-κB p65 (RelA) (Santa Cruz Biotechnology, Santa Cruz, Calif.) were used.
# RAW264.7 cells were treated with the indicated concentrations of dLGG for 1 hour then LPS (1 μg/mL) was added for 18 hours. Total cellular protein (20 μg) was then subjected to immunoblotting. Quantification of iNOS mRNA and protein expression involved normalization to GA3PDH (internal control) by densitometry. […] Thus, the dLGG-induced inhibition of NO production in LPS-stimulated macrophages is also mediated through suppression of both transcription and translation of iNOS.
compound,measurement,setting,value
"CC/C=C\C/C=C\C/C=C\CCCCCCCC(=O)OC[C@H](CO[C@@H]1O[C@H](CO)[C@H](O)[C@H](O)[C@H]1O)OC(=O)CCCCCCC/C=C\C/C=C\C/C=C\CC [dLGG, 1,2-di-O-α-linolenoyl-3-O-β-galactopyranosyl-sn-glycerol]",SNP-induced increase of nitrite plasma concentration,NO,suppressed
same,Suppression of full-length COX-2 promoter activity vs TPA only,"human COX-2 promoter; 50 μg/mL, B16 cells",20%
same,TPA-induced luciferase activity of −1334/−1 and −646/−1 promoter constructs (smaller),"human COX-2 promoter; 100 μg/mL, B16 cells",65-68%
same,Suppression of full-length COX-2 promoter activity vs TPA only,"human COX-2 promoter; 100 μg/mL, B16 cells",33%
same,"TPA-activated increases in luciferase activity, truncated promoter constructs","human COX-2 promoter; 100 μg/mL, all transfected cells",able to fully inhibit
same,"TPA-induced COX-2 promoter activity in mutant promoter constructs (CRE, NF-IL6, NF-κB)",human COX-2 promoter; B16 cells,able to suppress
same,Inhibitory effect on COX-2 protein expression and nitrotyrosine-containing proteins versus celecoxib 10 mg in 200 μL/site,[1]; 1 mg in 200 μL/site (6.46 mM),comparable to that of celecoxib
same,TPA-induced increases of COX-2 and nitrotyrosine-containing proteins in epidermis,[1]; topical 30 min before TPA 10 nmol 4 h,significantly attenuated
same,Topical SNP-induced nitroprotein formation in mouse skin,"[1]; topical, SNP-treated",suppressed
same,Reduction of LPS-induced PGE2 levels,PGE2 production,37-58%
same,iNOS protein level,iNOS protein,Little iNOS protein was detected
